{
  "source": "patent US10149887B2",
  "about": "“Peptides and peptidomimetics in combination with t cell activating and/or checkpoint inhibiting agents for cancer treatment” (CanBas Co., Ltd., priority 2015, dated 2018)",
  "key": {"Jurkat cells [1]": {"system": "Jurkat cells", "experiment": "G2 checkpoint abrogation, flow cytometry of bleomycin treated Jurkat cells", "format": "cell-based, human", "details": "dose with 40 μg/ml bleomycine giving detectable G2 checkpoint abrogation, 24 hours", "method": "Flow cytometry analysis of G2 checkpoint abrogation was performed using human leukemia derived Jurkat cell line. In brief, cultured cells were treated with various doses of peptide/peptidomimetic and 40 μg/ml bleomycine for 24 hr. The DNA of the cells was stained with propidium iodide and analyzed by flow cytometry.\nThe G2 checkpoint abrogating activity of various arginine rich sequences at different doses on cells treated with bleomycine was studied. Briefly, peptides were added to culture medium of Jurkat cells with bleomycin (40 μg/ml) at 0.2 μg/ml, 0.39 μg/ml, 0.78 μg/ml, 1.56 μg/ml, 3.125 μg/ml, 6.25 μg/ml, 12.5 μg/ml, 25 μg/ml and 50 μg/ml. Cells were subsequently harvested after 24 hours, stained with Krishan's solution, and analyzed with flow cytometry as previously described."}, "Jurkat cells [2]": {"system": "Jurkat cells", "experiment": "Side effect of peptide used alone: Jurkat cell cycle disturbance (flow cytometry)", "format": "cell-based", "details": "dose that produced Jurkat cell cycle disturbance, peptide alone", "description": "Cell-cycle analysis The cell cycle status of the cells treated with bleomycin or adriamcin were analyzed by flow cytometry as described by Kawabe (1997) Nature 385:454-458. In brief, two million cells were re-suspended and incubated in 200 μl Krishan's solution (0.1% Sodium citrate, 50 μg/ml PI, 20 μg/ml RNase A and 0.5% NP-40) for 1 hr at 4° C. and analyzed by a flow cytometry, FACScan™ (Beckton Dickinson, Mountain View, Calif.) with the program CELLQuest™ (Beckton Dickinson).\n(§1) The “Appearance of side effect when used alone” indicates the peptide/peptidomimetic dose that produced Jurkat cell cycle disturbance, i.e., the appearance of significant amounts of SubG1 cells (dead cells) or cells in which the DNA content of each varies more than usual. […] The “G2 abrogating dose” indicates the peptide/peptidomimetic dose with 40 μg/ml bleomycine that produced detectable G2 checkpoint abrogation activity following treatment for 24 hours. The “Appearance of side effect when used with colchicine” indicates the peptide/peptidomimetic dose with 5 μg/ml colchicine that produced Jurkat cell cycle disturbance following treatment for 24 hours."}, "Jurkat cells [3]": {"system": "Jurkat cells", "experiment": "M phase checkpoint abrogation / non specific toxicity, colchicine treated Jurkat cells", "format": "cell-based", "details": "dose with 5 μg/ml colchicine that produced Jurkat cell cycle disturbance, 24 hours", "description": "Flow cytometry analysis of M phase checkpoint abrogation by the compounds was performed using human T cell leukemia Jurkat cell line treated with colchicine (5 μg/ml or 0.5 μg/ml) and various doses of peptide/peptidomimetics for 24 hr (FIG. 12). The DNA of the cells was stained and analyzed by flow cytometry as described above.\nas §1\nA comparison between G2 checkpoint abrogating activity and non specific toxicity (M checkpoint abrogation) by CB501 was performed. In brief, Jurkat cells were treated with 40 μg/ml bleomycin or 0.5 μg/ml colchicine for G2 checkpoint abrogating activity and non specific toxicity, respectively. The DNA amount in each of the treated cells was analyzed by flow cytometry, as previously described."}, "PKA": {"biological_target": "PKA", "experiment": "In vitro kinase inhibition, PepTag Non-Radioactive Protein Kinase Assay", "format": "biochemical"}, "CHK2": {"biological_target": "CHK2 (Homo sapiens, UniProt O96017)", "sequence (O96017 whole entry)": "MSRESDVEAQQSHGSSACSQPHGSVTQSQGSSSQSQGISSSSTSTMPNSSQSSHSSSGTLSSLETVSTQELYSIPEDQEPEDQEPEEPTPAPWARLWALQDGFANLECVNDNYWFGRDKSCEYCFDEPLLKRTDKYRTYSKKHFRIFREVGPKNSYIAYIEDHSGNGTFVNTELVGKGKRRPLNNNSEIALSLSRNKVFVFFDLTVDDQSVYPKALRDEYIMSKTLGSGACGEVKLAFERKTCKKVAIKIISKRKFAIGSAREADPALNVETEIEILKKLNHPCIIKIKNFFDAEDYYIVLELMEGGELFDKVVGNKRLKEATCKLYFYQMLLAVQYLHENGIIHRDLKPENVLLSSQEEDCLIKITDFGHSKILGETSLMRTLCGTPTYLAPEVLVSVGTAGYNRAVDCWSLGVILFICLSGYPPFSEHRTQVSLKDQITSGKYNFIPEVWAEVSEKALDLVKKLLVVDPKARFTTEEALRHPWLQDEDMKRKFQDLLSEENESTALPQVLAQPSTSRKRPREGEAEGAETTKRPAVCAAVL", "experiment": "In vitro kinase inhibition, PepTag Non-Radioactive Protein Kinase Assay", "format": "biochemical", "details": "purified CHK2 kinase", "description": "Since two kinases, Chk1 and Chk2, are important for G2 checkpoint mechanism, kinase inhibition analysis of both enzymes was performed. In vitro kinase inhibition analysis was performed using “PepTag® Non-Radioactive Protein Kinase Assays”, Promega, according to company's protocol, except purified CHK2 kinase was used instead of PKC."}},
  "note": "Square brackets hold non-standard residues; d marks the D form. Peptide text beside a SMILES is read from it. dPhe(F5) = N[C@H](Cc1c(F)c(F)c(F)c(F)c1F)C(=O)O; dCha = N[C@H](CC1CCCCC1)C(=O)O",
  "data": [
    {"molecule": "N=C(N)NCCC[C@@H](NC(=O)[C@@H](CCCCN)NC(=O)[C@@H](CCCCN)NC(=O)[C@@H](CCCNC(=N)N)NC(=O)[C@@H](CCCNC(=N)N)NC(=O)[C@@H](CCC(N)=O)NC(=O)[C@@H](CCCNC(=N)N)NC(=O)[C@@H](CCCNC(=N)N)NC(=O)[C@@H](CCCNC(=N)N)NC(=O)[C@@H](CC1CCCCC1)NC(=O)[C@@H](Cc1c(F)c(F)c(F)c(F)c1F)NC(=O)[C@@H](CCCNC(=N)N)NC(=O)[C@@H](CO)NC(=O)CNC(=O)[C@@H](CO)NC(=O)[C@@H](Cc1ccc(O)cc1)NC(=O)[C@H](N)Cc1ccc(O)cc1)C(=O)NCC(=O)N[C@H](Cc1ccc(O)cc1)C(=O)O", "note": "[CBP450, (d-Tyr)(d-Tyr)(d-Ser)(1-Gly)(d-Ser)(d-Arg)(d-Phe-2,3,4,5,6-F)(d-Cha)(d-Arg)(d-Arg)(d-Arg)(d-Gln)(d-Arg)(d-Arg)(d-Lys)(d-Lys)(d-Arg)(1-Gly)(d-Tyr)] (H-[dY][dY][dS]G[dS][dR][dPhe(F5)][dCha][dR][dR][dR][dQ][dR][dR][dK][dK][dR]G[dY]-OH; N-terminus and C-terminus assumed)", "values": [
      {"measurement": "G2 abrogating dose", "setting": "Jurkat cells [1]", "result": "≥0.78", "unit": "µM"},
      {"measurement": "Appearance of side effect when used alone", "setting": "Jurkat cells [2]", "result": ">6.25", "unit": "µM"},
      {"measurement": "Appearance of side effect when used with Colchicine", "setting": "Jurkat cells [3]", "result": ">6.25", "unit": "µM"},
      {"measurement": "IC50", "setting": "PKA", "result": "> 400", "unit": "µM"},
      {"measurement": "IC50", "setting": "CHK2", "result": 10, "unit": "µM"}
    ]}
  ]
}
